The text below walks through data of US4647672A, “Ascorbate 2-polyphosphate esters and method of making same” (priority 1985, dated 1987).

As a reminder, the share remaining is the share of the starting amount still present when the sample was taken.

The structures appear in SMILES notation. Read-outs that look alike come from different tables or passages of the source.

For data set [1], the system named is fish. The following applies: fish and possibly crustacea; Halver et al 1975; cited from earlier work.
The subject of data set [2] is monkeys. The following applies: Machlin et al; cited from earlier work.
Data set [3] has as its system guinea pigs. The following applies: Machlin 1976; cited from earlier work.
Data set [4] in a line: physchem. It counts as physicochemical. The settings on record: for Stability (% Remaining) when reacted with aqueous hydrogen peroxide / remaining at 0.25 h / remaining at 1 h / remaining at 24 h / remaining at 72 h / remaining at 144 h / remaining at 192 h / remaining at 336 h: tris buffer, hydrogen peroxide; for Stability (% Remaining) when reacted with aqueous hydrogen peroxide: pH 7; for remaining at 0.25 h / remaining at 1 h / remaining at 24 h / remaining at 72 h / remaining at 144 h / remaining at 192 h / remaining at 336 h: pH 7, Stability (% Remaining) when reacted with aqueous hydrogen peroxide. Here is the method:
When ASTP and ASMP were treated under identical conditions (pH 7, 25° C.) with hydrogen peroxide for 8 days, 77% ASTP remained unreacted while 44% ASMP remained. After 14 days oxidation, 0% ASMP remained compared to 55% ASTP.
^1 Reaction mixture contained 0.05 mL of 30% aqueous hydrogen peroxid
and 200 micromoles of Lascorbate or its 2phosphorylated derivative in 100
ml of 0.05 TRIS buffer (pH 7.0). At a given reaction time, an aliquot (1
ml) of a reaction mixture containing the 2phosphorylated ester was dilute
10 fold with TRIS buffer at pH 7, and the uv absorbance of the mixture
read at 258 nm. To follow loss of Lascorbic acid, an aliquot (1 ml) of th
reaction mixture was diluted with 2% metaphosphoric acid, and the uv
absorbance read at 245 nm.

Data set [5] in a line: Blank reactions without phosphatase: acid-catalyzed release of L-ascorbate in pH 5.0 acetate buffer. It counts as physicochemical. The settings on record: 0.05 m acetate buffer, 25°, read-out: L-Ascorbate Released (%), Blank; for degraded at 0.25 h: reaction time 0.25 h; for degraded at 0.5 h: reaction time 0.50 h; for degraded at 1 h: reaction time 1.0 h; for degraded at 2 h: reaction time 2.0 h; for degraded at 3 h: reaction time 3.0 h; for degraded at 4 h: reaction time 4.0 h; for degraded at 8 h: reaction time 8.0 h; for degraded at 20 h: reaction time 20.0 h; for degraded at 5 h: reaction time 5.0 h.

Data set [6] can be described thus: in vitro. The class given is in vitro ADME, wheat. The settings on record: wheat, wheat flour suspension, pH 5. Here is the method: (§1) When stirred with a dilute suspension of wheat flour at 25° C., ASMP was comletely hydrolyzed in 1 hr. whereas ASTP required approximately 10-20 hr. for 95% hydrolysis.
(§2) ^1 Enzymolysis and titration of Lascorbate released were done as
(§3) described in the footnote to Table I, except the phosphatase was that
(§4) present in wheat flour. Two grams of wheat flour was used in the 100 ml
(§5) enzymolysis reaction mixture.

Data set [7] has as its system phosphatase present in wheat flour. Put plainly: in vitro. It counts as in vitro ADME. The protocol: as §1, §2, §3, §4, §5
A short description of data set [8]: in vitro. It counts as in vitro ADME, potato. The following applies: potato, ph 5.0 acetate buffer, pH 5. The protocol: (§6) It has also been confirmed that behavior of the 2-monophosphate ester of L-ascorbate, ASMP, towards the enzyme phosphatase is different than the behavior of the 2-triphopsphate ester, ASTP.
(§7) ^1 Enzymolysis was done at 25° by stirring 200 micromoles of
(§8) magnesium Lascorbate 2phosphate or ammonium Lascorbate 2triphosphate in
(§9) 100 ml of 0.05 M acetate buffer (pH 5.0) containing about 400 mg of
(§10) bakers' compressed yeast and 2 units of phosphatase (1 unit activity
(§11) hydrolyzes 1 μmole of pnitrophenyl phosphate at pH 4.8 and 37°)
(§12) At a given reaction time, an aliquot (5 ml) was removed, mixed with 5.0 m
(§13) of 12% trichloroacetic acid/4% metaphosphoric acid, and the mixture
(§14) filtered. An aliquot (5 ml) of the filtrate was titrated with
(§15) 2,6dichlorophenolindophenol to a pink endpoint. Blank solutions contained
(§16) all reagents except phosphatase.

Data set [9] deals with Acid Phosphatase from Potato. Put plainly: in vitro. The class given is in vitro ADME. The protocol:
as §6, §7, §8, §9, §10, §11, §12, §13, §14, §15, §16

The nature of data set [10]: Stabilization of L-ascorbate against autoxidation in aqueous medium at pH 7. It counts as physicochemical.
In data set [11] the test system is guinea pigs. The data set can be described thus: Guinea pig feeding study of vitamin C activity. The class given is in vivo. The following applies: 15.4 mg per kg of body weight per day orally, equivalent to 5.0 mg of L-ascorbic acid.
Description: English short-hair guinea pigs were housed individually in a cage and fed Purina guinea pig ration during a one-week acclimation period. The young pigs (190-250 g) were divided into four groups of 10 animals each. One group was fed a diet devoid of vitamin C (Reid-Briggs guinea pig diet, U.S. Biochemicals, Cleveland, Ohio); the second group received the same diet but supplemented with 5.0 mg of L-ascorbic acid per kg of body weight per day; the third group received 15.4 mg of purified tetrasodium L-ascorbate 2-triphosphate dihydrate (L-ascorbate 2-tri-PO4, purified) per kg of body weight per day; and the fourth group received 15.4 mg of tetra-sodium L-ascorbate 2-triphosphate dihydrate (L-ascorbate 2-tri-PO4, reaction mixture) in admixture with the by-products of the reaction mixture as set forth in Example I, except the small amount of unreacted L-ascorbic acid in the reaction mixture was destroyed by O2 -oxidation (the 15.4 mg of tetrasodium L-ascorbate 2-triphosphate dihydrate is equivalent to 5.0 mg of L-ascorbic acid). The vitamin C was administered orally with a calibrated syringe from solutions kept at 5° C., except the L-ascorbic acid solution was prepared fresh daily. The weights of the animals were recorded daily, and the arithmetic means of each group were calculated and compared in the FIGURE.
The mark [12] stands for this setting: pH 5, Table I, all reagents except phosphatase.
The mark [13] stands for this setting: pH 5, Table II, blank without phosphatase (wheat flour).

With `O=C1O[C@H]([C@@H](O)CO)C(O)=C1OS(=O)(=O)O` [2-sulfate ester], the “vitamin C activity” value in data set [1] is reported as “it is in fish”; in data set [2], “not an active source of vitamin C”; in data set [3] it was “not an active source of vitamin C”.
`O=C1O[C@H]([C@@H](O)CO)C(O)=C1OP(=O)(O)O` [ASMP, L-Ascorbate 2-phosphate]: in [4] (192 h), the “Stability (% Remaining) when reacted with aqueous hydrogen peroxide” value is reported as 44.1%. For the same molecule, in data set [4], the fraction remaining at 0.25 h is 98.7%, the amount remaining at 1 h came to 97.1%, the amount remaining at 24 h was 93.9% and the share remaining at 72 h was 77.7%. In data set [4], this molecule showed a fraction remaining at 144 h of 64.1%, an amount remaining at 192 h of 44% and a share remaining at 336 h of 0%. Also, in data set [5] (setting [12]), the degraded at 0.25 h was 0%, the degraded at 0.5 h worked out at 0%, the degraded at 1 h turned out to be 0% and the degraded at 2 h came to 2.9%. Also, in data set [5] (setting [12]), the degraded at 3 h came to 4.6%, the degraded at 4 h stood at 4.6%, the degraded at 8 h was 8.1% and the degraded at 20 h was ~15%. In data set [5] (setting [13]), the degraded at 0.25 h amounted to 0%, the degraded at 0.5 h amounted to 0%, the degraded at 1 h was determined as 0% and the degraded at 2 h was 2.9%. In data set [5] (setting [13]), the degraded at 3 h is 4.6%, the degraded at 4 h was 4.6%, the degraded at 5 h was 5.8% and the degraded at 20 h came out at 14.5%. In data set [6], this molecule registered a metabolised at 0.25 h of 47.1%, a metabolised at 0.5 h of 76.2%, a metabolised at 1 h of 100% and a metabolised at 2 h of 100%. In addition, in [6], the metabolised at 3 h stood at 100%, the metabolised at 4 h was 100%, the metabolised at 5 h was 100% and the metabolised at 20 h is 100%. The “time to complete hydrolysis” value in data set [7] came to 1 h. In data set [8], this molecule came in with a metabolised at 0.25 h of 9.3%, a metabolised at 0.5 h of 18.6%, a metabolised at 1 h of 35.5% and a metabolised at 2 h of 60.5%. Also, in data set [8], the metabolised at 3 h turned out to be 77.3%, the metabolised at 4 h amounted to 88.4%, the metabolised at 8 h stood at 100% and the metabolised at 20 h came to 100%. For the same molecule, the “rate of release of L-ascorbic acid when treated with purified phosphatase from potato (comparison in words)” value in data set [9] is given as “much faster than ASTP”.
With `O=C1O[C@H]([C@@H](O)CO)C(O)=C1OP(=O)(O)OP(=O)(O)OP(=O)(O)O` [ASTP, L-ascorbate 2-triphosphate], in data set [4], the “stability to oxidation compared with ASMP” value was “more stable to oxidation than ASMP”, the amount remaining at 0.25 h was 98.6%, the fraction remaining at 1 h came to 98.3% and the share remaining at 24 h amounted to 96.7%. In data set [4], this molecule displayed a share remaining at 72 h of 87.6%, a share remaining at 144 h of 83.3%, an amount remaining at 192 h of 77% and an amount remaining at 336 h of 55%. Also, in [4] (336 h), the “Stability (% Remaining) when reacted with aqueous hydrogen peroxide” value turned out to be 55.2%. Also, in [5] (setting [12]), the degraded at 0.25 h amounted to 0%, the degraded at 0.5 h turned out to be 0%, the degraded at 1 h was determined as 0% and the degraded at 2 h came out at 0%. Moreover, in data set [5] (setting [12]), the degraded at 3 h stood at 0%, the degraded at 4 h came to 0%, the degraded at 8 h came out at 0% and the degraded at 20 h was 0%. Also, in data set [5] (setting [13]), the degraded at 0.25 h is 0%, the degraded at 0.5 h was 0%, the degraded at 1 h turned out to be 0% and the degraded at 2 h stood at 0%. Further, in [5] (setting [13]), the degraded at 3 h was 0%, the degraded at 4 h worked out at 0%, the degraded at 5 h worked out at 0% and the degraded at 20 h amounted to 0%. Further, in data set [6], the metabolised at 0.25 h was found to be 0%, the metabolised at 0.5 h came to 1.2%, the metabolised at 1 h was 3.5% and the metabolised at 2 h amounted to 29.6%. Besides, in data set [6], the metabolised at 3 h was 65.8%, the metabolised at 4 h was determined as 86.9%, the metabolised at 5 h came out at 93.1% and the metabolised at 20 h was 95%. For the same molecule, the “time required for 95% hydrolysis” value in data set [7] lay in the range of 10 to 20 h. The “stabilization of L-ascorbate against autoxidation by the substance” value in [10] is reported as “L-ascorbate is stabilized against autoxidation by ASTP”. In data set [8], this molecule came in with a metabolised at 0.25 h of 0%, a metabolised at 0.5 h of 0%, a metabolised at 1 h of 0% and a metabolised at 2 h of 0%. In data set [8], this molecule yielded a metabolised at 3 h of 0.4%, a metabolised at 4 h of 0.8%, a metabolised at 8 h of 3.5% and a metabolised at 20 h of 8.5%.
Turning to `O.O.O=C1O[C@H]([C@@H](O)CO)C([O-])=C1OP(=O)([O-])OP(=O)([O-])OP(=O)([O-])O.[Na+].[Na+].[Na+].[Na+]` [L-ascorbate 2-tri-PO4, purified, tetrasodium L-ascorbate 2-triphosphate dihydrate], the “growth rate (mean body weight) compared with group fed equivalent L-ascorbic acid” value in data set [11] is given as “grew at a rate equal to that of the group fed an equivalent amount of L-ascorbic acid”.
Turning to `O=C1O[C@H]([C@@H](O)CO)C(O)=C1O` [Parent Compd, L-ascorbic acid], in [4] (pH 7, 25° C.), the “time to destruction by hydrogen peroxide” value was “destroyed in less than one hour”. In [4], this molecule returned a fraction remaining at 0.25 h of 56.9%, an amount remaining at 1 h of 0%, a fraction remaining at 24 h of 0% and an amount remaining at 72 h of 0%. In data set [4], this molecule came in with a share remaining at 144 h of 0%, an amount remaining at 192 h of 0% and an amount remaining at 336 h of 0%.
